Values joined by “and” are separate entries in the source; they are usually repeats but may differ in a detail not shown here. Identical values can stand only once. Residues, ends and D or L forms follow the SMILES beside them.
Columns and labels:
EL-4 lymphoma cells = assay: Tumor growth of EL-4 lymphoma in C57Bl/6 mice, compound with gamma-irradiation; assay type: in vivo, mouse; conditions: for tumor volume: single mouse; for tumor volume, mean: group mean
Text: (§1) Tumor Growth Experiments. Tumor cells were washed in PBS and resuspended in a volume of 200 micro-l per inoculate. The cells were then inoculated into the right flank at 10^6 per mouse and growth of the tumor was monitored by measurement two times per week. The initiation of anti-tumor treatment of the mice was to some extent individualized according to when tumor growth started in each mouse. The mice were irradiated with 4 Gy prior to tumor inoculation in order to inhibit anti-tumor immune responses. The tumor volume was calculated as the mean volume in mice with tumors growth, according to (a1×a2×a3)/2 (the numbers ai denote tumor diameter, width and depth). The time of first palpation varied between different mice, although the general pattern of growth was similar in virtually all of the mice. In most diagrams a log-scale is used to better visualize the therapeutic effects against small tumors, i.e. the presence of complete rejections. For inhibition of TPPII in vivo we made intraperitoneal injections with 13.8 mg per kg of body weight (14 micro-l of a 50 mM solution/mouse) of the Subtilisin inhibitor Z-Gly-Leu-Ala-OH (Z-GLA-OH, Bachem, Weil am Rhein, Germany) twice per week, diluted into 200 micro-l PBS. All gamma-irradiations were full body exposures.
Table 3 contains further in vivo data, showing tumor volume in mm^3, in groups of 7-8 mice, according to the EL-4 tumor model described above. 1.000.000 EL-4 lymphoma cells were inoculated subcutaneously at day 0. No palpable tumors were observed until day 22. At each treatment (twice weekly) mice with palpable tumors were given 400 Rads irradiation alone, or in combination with 14 micro-l 50 mM solution of Z-GLA-OH. Mice with no palpable tumors were not treated, i.e. in mice with rejected tumors, treatment was terminated and the mice were kept under observation.
All mice were 400 Rad (1 Gy=100 Rad) gamma-irradiated at day 0, a standard procedure to improve tumor acceptance. The compound was inoculated intraperitoneally, whereas tumors were always inoculated subcutaneously.

DBA/2-c-Myc/Bcl-xL cells = assay: Tumor growth of DBA/2-c-Myc/Bcl-xL cells in DBA/2 mice; assay type: in vivo, mouse
Text: as §1
Retroviral transduction and transplantation. […]
Detection of GFP and YFP expression was performed using a Cyan™ ADP cytometer (Dako, Glostrup, Denmark) where after excitation at 488 nm, a 525-nm long-pass dichroic mirror was used to initially separate the signals followed by a 510/21-nm bandpass filter for detection of EGFP and a 550/30-nm band pass filter for EYFP. Data were analyzed using FlowJo software (Tree Star, Inc., San Carlos, Calif.). […]

[1] = Toxicity study in vivo, single agent; conditions: doses up to 100 mg/kg, preliminary study
[2] = EL-4, irradiation + Z-GLA-OH, day 26
[3] = EL-4, irradiation + Z-GLA-OH, day 30
[4] = EL-4, irradiation + Z-GLA-OH, day 34
[5] = EL-4, irradiation + Z-GLA-OH, day 37
[6] = EL-4, irradiation + Z-GLA-OH, day 41
[7] = EL-4, irradiation + Z-GLA-OH, day 44
[8] = EL-4, irradiation + Z-GLA-OH, day 48
[9] = EL-4, irradiation + Z-GLA-OH, day 55
[10] = EL-4, irradiation + Z-GLA-OH, day 62
[11] = EL-4, irradiation + Z-GLA-OH, day 65
[12] = EL-4, irradiation + Z-GLA-OH, day 72
[13] = EL-4, irradiation + Z-GLA-OH, day 78

## CC(C)C[C@H](NC(=O)CNC(=O)OCc1ccccc1)C(=O)N[C@@H](C)C(=O)O [Z-GLA-OH, Z-Gly-Leu-Ala-OH] (HELM PEPTIDE1{[O=C(OCc1ccccc1)[*:2]].G.L.A}$$$$V2.0)
EL-4 lymphoma cells; EL-4, after 4 Gy + Z-GLA-OH 13.8 mg/kg
  period of observation without re-growth of tumors after treatment was cancelled: over 3 months
EL-4 lymphoma cells; EL-4, irradiation 400 Rads + Z-GLA-OH 14 micro-l 50 mM i.p., day 22
  tumor volume: 6.00 mm^3 and 0.50 mm^3 (5×) and 4.00 mm^3
EL-4 lymphoma cells; EL-4, irradiation + Z-GLA-OH, day 22
  tumor volume, mean: 2.06 mm^3
EL-4 lymphoma cells; [2]
  tumor volume, mean: 84.69 mm^3
  tumor volume: 108.00 mm^3 (3×) and 126.00 mm^3 and 75.00 mm^3 and 50.00 mm^3 and 40.00 mm^3 and 62.50 mm^3
EL-4 lymphoma cells; [3]
  tumor volume, mean: 49.94 mm^3
  tumor volume: 108.00 mm^3 (2×) and 13.50 mm^3 and 18.00 mm^3 and 24.00 mm^3 and 32.00 mm^3 and 48.00 mm^3 (2×)
EL-4 lymphoma cells; [4]
  tumor volume, mean: 20.75 mm^3
  tumor volume: 10.00 mm^3 and 0.50 mm^3 and 62.50 mm^3 and 24.00 mm^3 (2×) and 13.50 mm^3 (2×) and 18.00 mm^3
EL-4 lymphoma cells; [5]
  tumor volume, mean: 12.69 mm^3
  tumor volume: 8.00 mm^3 and 18.00 mm^3 and 12.00 mm^3 and 6.00 mm^3 (2×) and 27.00 mm^3 and 24.00 mm^3 and 0.50 mm^3
EL-4 lymphoma cells; [6]
  tumor volume, mean: 3.88 mm^3
  tumor volume: 0.50 mm^3 (3×) and 4.00 mm^3 (4×) and 13.50 mm^3
EL-4 lymphoma cells; [7]
  tumor volume, mean: 1.14 mm^3
  tumor volume: 0.50 mm^3 (4×) and 0.10 mm^3 and 2.00 mm^3 and 1.00 mm^3 and 4.00 mm^3
EL-4 lymphoma cells; [8]
  tumor volume, mean: 0.18 mm^3
  tumor volume: 0.10 mm^3 (4×) and 0.50 mm^3 (2×) and 0.00 mm^3 (2×)
EL-4 lymphoma cells; [9]
  tumor volume, mean: 0.07 mm^3
  tumor volume: 0.00 mm^3 (6×) and 0.10 mm^3 and 0.50 mm^3
EL-4 lymphoma cells; [10]
  tumor volume, mean: 0.01 mm^3
  tumor volume: 0.10 mm^3 and 0.00 mm^3 (7×)
EL-4 lymphoma cells; [11]
  tumor volume, mean: 0.01 mm^3
  tumor volume: 0.00 mm^3
EL-4 lymphoma cells; [12]
  tumor volume, mean: 0.01 mm^3
  tumor volume: 0.10 mm^3 and 0.00 mm^3 (7×)
EL-4 lymphoma cells; [13]
  tumor volume, mean: 0.00 mm^3
  tumor volume: 0.00 mm^3
EL-4 lymphoma cells; EL-4, 400 Rads irradiation + 14 micro-l 50 mM Z-GLA-OH at each treatment (twice weekly)
  tumor response, summary of Table 3: complete rejection of established tumors
EL-4 lymphoma cells; EL-4, Z-GLA-OH 3.5 mg/kg and lower doses + 3 Gy gamma-irradiation doses
  mice with tumor regression (partial effects): 2 out of 4
EL-4 lymphoma cells; EL-4, Z-GLA-OH 6.9 mg/kg + 3 Gy gamma-irradiation doses
  mice with complete tumor rejection: 3 out of 4
EL-4 lymphoma cells; EL-4, gamma-irradiation doses of 1 Gy + Z-GLA-OH injection
  mice with complete rejection: 1 out of 4
EL-4 lymphoma cells; EL-4, gamma-irradiation doses of 2 Gy + Z-GLA-OH injection
  mice with complete rejection: 2 out of 5
EL-4 lymphoma cells; EL-4, gamma-irradiation doses of 3 Gy + Z-GLA-OH injection
  tumor response: complete regression
EL-4 lymphoma cells; established EL-4 tumors, C57Bl/6 mice, 3-4 doses of 400 Rad (one dose/week) + Z-GLA-OH 13.8 mg/kg twice weekly, all mice tested
  tumor response: complete tumor regression
DBA/2-c-Myc/Bcl-xL cells; Z-GLA-OH 13.8 mg/kg + gamma-irradiation, flow cytometry, histology
  tumor cells in lung, spleen or liver: failed to find tumor cells
DBA/2-c-Myc/Bcl-xL cells; Z-GLA-OH only, no gamma-irradiation
  tumor response: no reduction of tumor size
DBA/2-c-Myc/Bcl-xL cells; established DBA/2-c-Myc/Bcl-xL tumors, Z-GLA-OH 13.8 mg/kg + 4 Gy doses of gamma-irradiation
  tumor response: complete tumor regression
[1]
  toxicity in vivo: minor effects

From patent US20100168038A1, “USE OF COMPOUNDS IN COMBINATION WITH GAMMA-IRRADIATION FOR THE TREATMENT OF CANCER” (priority 2006, published 2010)
